Calls of active or inactive are those of the source. The rule behind the calls is not given here.
How the values were obtained:
Assay in all cases: competitive ABPP of Abhd10 versus anti-targets – biochemical, fluorescence, gel-based, mouse proteome, selectivity assay for PME-1 inhibitor project, late-stage follow-up (AID 588807)
[1] = target: Palmitoyl-protein thioesterase ABHD10, mitochondrial (Mus musculus) (UniProt Q6PE15); conditions: stronger effect = higher value
[2] = system: Kiaa1363; conditions: anti-target, stronger effect = higher value
[3] = system: Magl; conditions: anti-target, stronger effect = higher value
[4] = target: Monoacylglycerol lipase ABHD6 (Mus musculus) (UniProt Q8R2Y0); conditions: anti-target, stronger effect = higher value
Chain of Monoacylglycerol lipase ABHD6 (Mus musculus) (Q8R2Y0 whole entry, looked up): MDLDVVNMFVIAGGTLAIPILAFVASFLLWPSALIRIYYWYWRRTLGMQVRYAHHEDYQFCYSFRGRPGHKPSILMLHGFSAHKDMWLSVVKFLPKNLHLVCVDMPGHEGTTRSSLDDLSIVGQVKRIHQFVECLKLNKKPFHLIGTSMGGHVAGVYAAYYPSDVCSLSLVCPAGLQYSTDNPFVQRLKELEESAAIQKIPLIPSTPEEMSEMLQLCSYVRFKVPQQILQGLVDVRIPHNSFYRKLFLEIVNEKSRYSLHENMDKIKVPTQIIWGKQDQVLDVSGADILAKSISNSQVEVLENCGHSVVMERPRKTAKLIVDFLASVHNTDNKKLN

[5] = system: APEH; conditions: anti-target, stronger effect = higher value
[6] = target: Prolyl endopeptidase (Mus musculus) (UniProt Q9QUR6); conditions: PREP, anti-target, stronger effect = higher value
Chain of Prolyl endopeptidase (Mus musculus) (Q9QUR6 whole entry, looked up): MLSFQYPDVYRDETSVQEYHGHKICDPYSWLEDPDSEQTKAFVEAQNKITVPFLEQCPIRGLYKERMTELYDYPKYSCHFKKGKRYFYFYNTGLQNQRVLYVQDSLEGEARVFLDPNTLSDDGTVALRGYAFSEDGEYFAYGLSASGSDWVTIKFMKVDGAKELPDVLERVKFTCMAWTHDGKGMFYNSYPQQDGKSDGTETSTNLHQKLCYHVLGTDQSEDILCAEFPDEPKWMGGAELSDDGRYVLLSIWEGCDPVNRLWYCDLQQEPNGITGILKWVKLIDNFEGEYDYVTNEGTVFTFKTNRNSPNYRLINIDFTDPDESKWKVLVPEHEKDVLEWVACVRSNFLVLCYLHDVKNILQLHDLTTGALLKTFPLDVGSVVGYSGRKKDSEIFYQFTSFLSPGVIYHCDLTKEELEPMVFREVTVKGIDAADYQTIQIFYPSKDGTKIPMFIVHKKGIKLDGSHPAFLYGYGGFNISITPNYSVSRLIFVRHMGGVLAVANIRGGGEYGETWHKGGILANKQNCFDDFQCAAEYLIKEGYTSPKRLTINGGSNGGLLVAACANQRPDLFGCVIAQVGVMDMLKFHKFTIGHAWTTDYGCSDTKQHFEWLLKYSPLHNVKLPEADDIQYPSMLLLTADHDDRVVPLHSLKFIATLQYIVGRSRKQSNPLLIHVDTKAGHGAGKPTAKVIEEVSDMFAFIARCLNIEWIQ

Chain of Palmitoyl-protein thioesterase ABHD10, mitochondrial (Mus musculus) (Q6PE15 whole entry, looked up): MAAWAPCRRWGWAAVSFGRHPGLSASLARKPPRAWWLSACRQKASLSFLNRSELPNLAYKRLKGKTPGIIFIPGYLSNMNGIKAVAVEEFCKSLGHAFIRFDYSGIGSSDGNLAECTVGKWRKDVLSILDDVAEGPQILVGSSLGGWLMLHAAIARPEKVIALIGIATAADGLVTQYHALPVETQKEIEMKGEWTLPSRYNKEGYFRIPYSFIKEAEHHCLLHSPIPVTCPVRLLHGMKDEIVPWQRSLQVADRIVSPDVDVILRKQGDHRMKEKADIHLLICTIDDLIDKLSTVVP

| Compound | inhibition ([1]; at 10 µM) | inhibition ([1]; inhibition, at 0.1 µM) [%] | inhibition ([1]; inhibition, at 1 µM) [%] | inhibition ([2]; at 10 µM) | inhibition ([3]; at 10 µM) | inhibition ([4]; at 10 µM) | inhibition ([5]; at 10 µM) | inhibition ([6]; at 10 µM) | inhibition ([6]; inhibition, at 0.1 µM) [%] | inhibition ([6]; inhibition, at 1 µM) [%] | inhibition ([3]; inhibition, at 1 µM) [%] | inhibition ([5]; inhibition, at 1 µM) [%] | inhibition ([2]; inhibition, at 1 µM) [%] | inhibition ([4]; inhibition, at 0.1 µM) [%] | inhibition ([4]; inhibition, at 1 µM) [%] |
| --- | --- | --- | --- | --- | --- | --- | --- | --- | --- | --- | --- | --- | --- | --- | --- |
| CCOC(=O)N1C(=O)[C@@](CC)(c2ccc(C)cc2)N1C(=O)OCC | 100% | 60 | 95 | 25% (inactive) | 60% (inactive) | 55% (inactive) | 0% (inactive) | 65% (inactive) |  |  |  |  |  |  |  |
| C=CCOC(=O)N1N(C(=O)OC)C(=O)[C@@]1(CC)c1ccccc1 | 90% (inactive) | 10 | 60 | 55% (inactive) | 20% (inactive) | 60% (inactive) | 0% (inactive) | 55% (inactive) | 10 | 25 |  |  |  |  |  |
| CCCOC(=O)N1C(=O)C(CC)(c2cccc(C)c2)N1C(=O)OCCC (stereo not drawn) | 100% (inactive) | 10 | 95 | 0% (inactive) | 25% (inactive) | 70% (inactive) | 10% (inactive) | 60% (inactive) |  | 20 | 10 |  |  |  |  |
| CC[C@@]1(c2cccc(OC)c2)C(=O)N(C(=O)OC)N1C(=O)OC | 90% (inactive) |  | 65 | 0% (inactive) | 0% (inactive) | 0% (inactive) | 0% (inactive) | 0% (inactive) |  |  |  |  |  |  |  |
| Cc1cccc([C@]2(C)C(=O)N(C(=O)OCc3ccccc3)N2C(=O)OCc2ccccc2)c1 | 15% (inactive) |  |  | 0% (inactive) | 0% (inactive) | 0% (inactive) | 0% (inactive) | 0% (inactive) |  |  |  |  |  |  |  |
| CC[C@@]1(c2ccc(OC)cc2)C(=O)N(C(=O)OC)N1C(=O)OC | 100% (inactive) |  | 70 | 0% (inactive) | 10% (inactive) | 10% (inactive) | 95% (inactive) | 40% (inactive) |  |  |  | 95 |  |  |  |
| CCOC(=O)N1C(=O)[C@@](CC)(c2cccc(C)c2)N1C(=O)OCC | 100% | 75 | 100 | 25% (inactive) | 45% (inactive) | 65% (inactive) | 70% (inactive) | 100% (inactive) | 20 | 45 |  |  |  |  |  |
| CC[C@@]1(c2cccc(C)c2)C(=O)N(C(=O)OC)N1C(=O)OC(C)C | 100% (inactive) | 20 | 95 | 0% (inactive) | 0% (inactive) | 75% (inactive) | 20% (inactive) | 70% (inactive) | 20 | 35 |  |  |  |  |  |
| C=CCOC(=O)N1C(=O)[C@@](CC)(c2ccc(C)cc2)N1C(=O)OCC=C | 90% | 80 | 90 | 10% (inactive) | 50% (inactive) | 75% (inactive) | 0% (inactive) | 40% (inactive) |  | 15 |  |  |  |  |  |
| CC[C@@]1(c2cccc(C)c2)C(=O)N(C(=O)OC(C)(C)C)N1C(=O)OC(C)(C)C | 70% (inactive) |  | 10 | 0% (inactive) | 0% (inactive) | 10% (inactive) | 0% (inactive) | 0% (inactive) |  |  |  |  |  |  |  |
| CC[C@@]1(c2ccc(Cl)c(Cl)c2)C(=O)N(C(=O)OC(C)C)N1C(=O)OC(C)C | 90% (inactive) | 25 | 90 | 0% (inactive) | 25% (inactive) | 50% (inactive) | 50% (inactive) | 80% (inactive) |  |  |  |  |  |  |  |
| CC[C@@]1(c2cccc(C)c2)C(=O)N(C(=O)OCC(Cl)(Cl)Cl)N1C(=O)OCC(Cl)(Cl)Cl | 20% (inactive) |  |  | 0% (inactive) | 0% (inactive) | 0% (inactive) | 0% (inactive) | 10% (inactive) |  |  |  |  |  |  |  |
| CC[C@@]1(c2cccc(Cl)c2)C(=O)N(C(=O)OC(C)C)N1C(=O)OC(C)C | 100% (inactive) | 40 | 100 | 75% (inactive) | 45% (inactive) | 70% (inactive) | 65% (inactive) | 95% (inactive) |  | 50 |  | 30 | 25 | 15 | 20 |
| CCOC(=O)N1C(=O)[C@@](C)(c2cccc(C)c2)N1C(=O)OCC | 100% | 60 | 80 | 0% (inactive) | 0% (inactive) | 0% (inactive) | 45% (inactive) | 0% (inactive) |  |  |  |  |  |  |  |
| C=CCOC(=O)N1N(C(=O)OC)C(=O)[C@@]1(CC)c1cccc(C)c1 | 90% (inactive) | 10 | 75 | 25% (inactive) | 10% (inactive) | 50% (inactive) | 75% (inactive) | 70% (inactive) |  |  |  |  |  |  |  |
| CCC[C@@]1(c2cccc(C)c2)C(=O)N(C(=O)OC)N1C(=O)OC | 10% (inactive) |  |  | 0% (inactive) | 0% (inactive) | 0% (inactive) | 0% (inactive) | 0% (inactive) |  |  |  |  |  |  |  |
| C=CCOC(=O)N1C(=O)[C@@](CC)(c2cccc(C)c2)N1C(=O)OCC=C | 90% (inactive) | 35 | 85 | 20% (inactive) | 50% (inactive) | 75% (inactive) | 20% (inactive) | 65% (inactive) |  | 10 |  |  |  |  |  |
| CC[C@@]1(c2ccc(Cl)cc2)C(=O)N(C(=O)OC)N1C(=O)OC | 100% | 60 | 100 | 25% (inactive) | 45% (inactive) | 50% (inactive) | 45% (inactive) | 50% (inactive) |  |  |  |  |  |  |  |
| C=CCOC(=O)N1C(=O)[C@@](CC)(c2ccccc2)N1C(=O)OCC=C | 100% (inactive) | 30 | 90 | 35% (inactive) | 50% (inactive) | 80% (inactive) | 55% (inactive) | 70% (inactive) |  | 10 |  |  |  |  |  |
| CC[C@@]1(c2ccc(Cl)c(Cl)c2)C(=O)N(C(=O)OC)N1C(=O)OC | 90% (inactive) | 20 | 70 | 0% (inactive) | 10% (inactive) | 0% (inactive) | 55% (inactive) | 25% (inactive) |  |  |  |  |  |  |  |

Reference: PubChem BioAssay AID588807 (The Scripps Research Institute Molecular Screening Center, 2011)
